Results on two compounds are retold here after ChEMBL document CHEMBL1125088, “Stereospecific synthesis, assignment of absolute configuration, and biological activity of the enantiomers of 3-[[[3-[2-(7-chloroquinolin-2-yl)-(E)-ethenyl]phenyl] [[3-(dimethylamino)-3-oxopropyl]thio]methyl]thio]propionic acid, a potent and specific leukotriene D4 receptor antagonist” (J Med Chem, 1990).

Experiment [1] deals with T1, Cysteinyl leukotriene receptor 1 (Homo sapiens, UniProt Q9Y271).
T1 sequence (Q9Y271 whole entry): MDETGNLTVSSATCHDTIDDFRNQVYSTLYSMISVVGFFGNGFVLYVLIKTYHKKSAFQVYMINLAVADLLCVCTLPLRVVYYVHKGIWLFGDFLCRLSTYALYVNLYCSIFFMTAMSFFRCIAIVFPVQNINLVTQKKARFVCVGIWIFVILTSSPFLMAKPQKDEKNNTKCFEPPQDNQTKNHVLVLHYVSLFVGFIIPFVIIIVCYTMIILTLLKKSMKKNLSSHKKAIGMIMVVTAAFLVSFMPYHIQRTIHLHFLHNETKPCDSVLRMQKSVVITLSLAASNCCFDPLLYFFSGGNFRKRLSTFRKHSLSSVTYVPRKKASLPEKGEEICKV
Kind of experiment: In vitro inhibitory activity against Cysteinyl leukotriene D4 receptor from human lung membrane. Format: tissue-based.

Experiment [2] addresses T2, Cysteinyl leukotriene receptor 1 (Cavia porcellus, UniProt Q2NNR5).
T2 sequence (Q2NNR5 whole entry): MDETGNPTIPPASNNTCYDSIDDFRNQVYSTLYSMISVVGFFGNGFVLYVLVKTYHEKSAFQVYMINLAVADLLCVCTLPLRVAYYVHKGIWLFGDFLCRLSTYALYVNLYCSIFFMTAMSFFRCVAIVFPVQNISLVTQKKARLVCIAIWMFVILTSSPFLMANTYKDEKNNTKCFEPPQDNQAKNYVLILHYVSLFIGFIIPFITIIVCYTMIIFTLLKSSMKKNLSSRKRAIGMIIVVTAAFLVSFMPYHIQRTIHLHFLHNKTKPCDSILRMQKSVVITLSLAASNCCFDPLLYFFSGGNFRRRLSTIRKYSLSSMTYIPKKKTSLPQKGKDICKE
Kind of experiment: Binding affinity against Cysteinyl leukotriene D4 receptor from guinea pig lung membrane. The experiment is classed as tissue-based.

The species named for the next experiment is Cavia porcellus. Kind of experiment: Antagonist activity of LTD4-induced contractions of isolated guinea pig trachea. Format: functional.
The species named for another experiment is Rattus norvegicus. Kind of experiment: Tested for antigen-induced dyspnea in hyperactive rats. Format: functional.

On to `CN(C)C(=O)CCS[C@H](SCCC(=O)O)c1cccc(/C=C/c2ccc3ccc(Cl)cc3n2)c1` [VERLUKAST], for which the IC50 came to 8 nM in experiment [1] and 3.2 nM in experiment [2]. For the same compound, in the experiment filed under Cavia porcellus, the “-Log KB” value amounted to 8.7. Also, it took a dose of 0.028 mg/kg to reach the 50% effect level in the experiment filed under Rattus norvegicus (ED50).

In the case of `CN(C)C(=O)CCSC(SCCC(=O)[O-])c1cccc(/C=C/c2ccc3ccc(Cl)cc3n2)c1.[Na+]` (stereo not drawn), the 50% inhibitory concentration (IC50) in experiment [1] came to 3.1 nM; in experiment [2] it was 0.77 nM. In the experiment listed under Cavia porcellus, the “-Log KB” value came out at 9. In the experiment filed under Rattus norvegicus, this compound gave an ED50 of 0.097 mg/kg.

The IC50 is the midpoint of a concentration-inhibition curve. Higher therefore signals lower potency. By ED50 is commonly meant the dose that gives a 50% effect, or the effect in half of the subjects. High values mean a need for a large dose, low ones an effect at a small dose.
